System: KRAS-mutant PDC multicell tumor spheroid viability
Assay: Anticancer human tumor 521955-158-R2-J5-PDC patient-derived pancreatic carcinoma cell line growth inhibition [KRAS2]
Settings: for viability, T/C: stronger effect = lower value
How it was run: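 KRAS-mutant tumor cells were grown as spheroids with HUVEC endothelial cells and human MSCs as stroma. Targeted agents were tested alone and with KRAS pathway inhibitors. Doses started at or near clinical Cmax, or 10 microM, descending half-log.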

[1] = curve of first compound, second compound 0.1 µM
[2] = curve of first compound, second compound 0.316 µM
[3] = curve of first compound, second compound 1 µM
[4] = curve of first compound, second compound 3.16 µM
[5] = curve of first compound, second compound 10 µM
[6] = second compound 0.1 µM, first compound 0.01 µM
[7] = second compound 0.1 µM, first compound 0.0316 µM
[8] = second compound 0.1 µM, first compound 0.1 µM
[9] = second compound 0.1 µM, first compound 0.316 µM
[10] = second compound 0.1 µM, first compound 1 µM
[11] = second compound 0.1 µM, first compound 3.16 µM
[12] = second compound 0.316 µM, first compound 0.01 µM
[13] = second compound 0.316 µM, first compound 0.0316 µM
[14] = second compound 0.316 µM, first compound 0.1 µM
[15] = second compound 0.316 µM, first compound 0.316 µM
[16] = second compound 0.316 µM, first compound 1 µM
[17] = second compound 0.316 µM, first compound 3.16 µM
[18] = second compound 1 µM, first compound 0.01 µM
[19] = second compound 1 µM, first compound 0.0316 µM
[20] = second compound 1 µM, first compound 0.1 µM
[21] = second compound 1 µM, first compound 0.316 µM
[22] = second compound 1 µM, first compound 1 µM
[23] = second compound 1 µM, first compound 3.16 µM
[24] = second compound 3.16 µM, first compound 0.01 µM
[25] = second compound 3.16 µM, first compound 0.0316 µM
[26] = second compound 3.16 µM, first compound 0.1 µM
[27] = second compound 3.16 µM, first compound 0.316 µM
[28] = second compound 3.16 µM, first compound 1 µM
[29] = second compound 3.16 µM, first compound 3.16 µM
[30] = second compound 10 µM, first compound 0.01 µM
[31] = second compound 10 µM, first compound 0.0316 µM
[32] = second compound 10 µM, first compound 0.1 µM
[33] = second compound 10 µM, first compound 0.316 µM
[34] = second compound 10 µM, first compound 1 µM
[35] = second compound 10 µM, first compound 3.16 µM
[36] = second compound 0.1 µM, first compound 0.00316 µM
[37] = second compound 0.316 µM, first compound 0.00316 µM
[38] = second compound 1 µM, first compound 0.00316 µM
[39] = second compound 3.16 µM, first compound 0.00316 µM
[40] = second compound 0.1 µM, first compound 10 µM
[41] = second compound 0.316 µM, first compound 10 µM
[42] = second compound 1 µM, first compound 10 µM
[43] = second compound 3.16 µM, first compound 10 µM
[44] = second compound 10 µM, first compound 10 µM
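Also: viability read after seven days of drug exposure.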

`CC(=O)OC12COC1CC(O)C1(C)C(=O)C(O)C3=C(C)C(OC(=O)C(O)C(NC(=O)OC(C)(C)C)c4ccccc4)CC(O)(C(OC(=O)c4ccccc4)C21)C3(C)C` (stereo not given) + C=CC(=O)N1CCN(c2nc(=O)n(-c3c(C)ccnc3C(C)C)c3nc(-c4c(O)cccc4F)c(F)cc23)C(C)C1 showed an IC50 [1] of under 10 nM, an IC50 [2] of under 10 nM and an IC50 [3] of under 10 nM. For the same molecule, the IC50 [4] was under 10 nM, the IC50 [5] was under 10 nM and the viability, T/C [6] was 21.5%. It also gave a viability, T/C [7] of 15.5%, a viability, T/C [8] of 15.1% and a viability, T/C [9] of 15.4%. The viability, T/C [10] was 15.7%, the viability, T/C [11] was 17.4% and the viability, T/C [12] was 22.5%. It also gave a viability, T/C [13] of 13.3%, a viability, T/C [14] of 11.5% and a viability, T/C [15] of 12.6%. The viability, T/C [16] was 13.6%, the viability, T/C [17] was 20% and the viability, T/C [18] was 15%. It also gave a viability, T/C [19] of 10.9%, a viability, T/C [20] of 10.9% and a viability, T/C [21] of 12%. It also gave a viability, T/C [22] of 11.9%, a viability, T/C [23] of 12.1% and a viability, T/C [24] of 17.5%. The viability, T/C [25] was 10.9%, the viability, T/C [26] was 6.69% and the viability, T/C [27] was 7.49%. The viability, T/C [28] was 11.8%, the viability, T/C [29] was 16.2% and the viability, T/C [30] was 20.7%. For the same molecule, the viability, T/C [31] was 13.1%, the viability, T/C [32] was 9.39% and the viability, T/C [33] was 9.36%. It also gave a viability, T/C [34] of 12.5% and a viability, T/C [35] of 12.7%.
With `Cn1ncnc1[C@H]1c2n[nH]c(=O)c3cc(F)cc(c23)N[C@@H]1c1ccc(F)cc1` + CNCc1ccccc1-c1csc(C(C)Nc2nc(C)nc3cc(OC)c(OC)cc23)c1 the IC50 [1] was over 100 nM, the IC50 [2] was over 100 nM and the IC50 [3] was over 100 nM. It also gave an IC50 [4] of under 0.316 nM, an IC50 [5] of under 0.316 nM and a viability, T/C (second compound 0.1 µM, first compound 0.000316 µM) of 101%. For the same molecule, the viability, T/C (second compound 0.1 µM, first compound 0.001 µM) was 94.8%, the viability, T/C [36] was 84.5% and the viability, T/C [6] was 80.2%. For the same molecule, the viability, T/C [7] was 81.7%, the viability, T/C [8] was 81% and the viability, T/C (second compound 0.316 µM, first compound 0.000316 µM) was 104%. For the same molecule, the viability, T/C (second compound 0.316 µM, first compound 0.001 µM) was 81.2%, the viability, T/C [37] was 82.1% and the viability, T/C [12] was 76.7%. The viability, T/C [13] was 81.8%, the viability, T/C [14] was 80.3% and the viability, T/C (second compound 1 µM, first compound 0.000316 µM) was 114%. The viability, T/C (second compound 1 µM, first compound 0.001 µM) was 119%, the viability, T/C [38] was 112% and the viability, T/C [18] was 93.8%. It also gave a viability, T/C [19] of 91.5%, a viability, T/C [20] of 89.6% and a viability, T/C (second compound 3.16 µM, first compound 0.000316 µM) of 2.53%. The viability, T/C (second compound 3.16 µM, first compound 0.001 µM) was 1.22%, the viability, T/C [39] was 2.97% and the viability, T/C [24] was 1.01%. For the same molecule, the viability, T/C [25] was 0.7%, the viability, T/C [26] was 0.26% and the viability, T/C (second compound 10 µM, first compound 0.000316 µM) was 0.78%. For the same molecule, the viability, T/C (second compound 10 µM, first compound 0.001 µM) was 0.71%, the viability, T/C (second compound 10 µM, first compound 0.00316 µM) was 0.43% and the viability, T/C [30] was 0.21%. The viability, T/C [31] was 0.16% and the viability, T/C [32] was 1.36%.
`CCN1CCN(Cc2ccc(Nc3ncc(F)c(-c4cc(F)c5nc(C)n(C(C)C)c5c4)n3)nc2)CC1` + C=CC(=O)N1CCN(c2nc(OCC3CCCN3C)nc3c2CCN(c2cccc4cccc(C)c24)C3)CC1CC#N gave an IC50 (curve of first compound, second compound 0.0316 µM) of over 1000 nM, an IC50 [1] of over 1000 nM and an IC50 [2] of over 1000 nM. The IC50 [3] was over 1000 nM, the IC50 [4] was under 3.16 nM and the viability, T/C (second compound 0.0316 µM, first compound 0.00316 µM) was 93.5%. For the same molecule, the viability, T/C (second compound 0.0316 µM, first compound 0.01 µM) was 107%, the viability, T/C (second compound 0.0316 µM, first compound 0.0316 µM) was 91.8% and the viability, T/C (second compound 0.0316 µM, first compound 0.1 µM) was 85.9%. It also gave a viability, T/C (second compound 0.0316 µM, first compound 0.316 µM) of 110%, a viability, T/C (second compound 0.0316 µM, first compound 1 µM) of 83.6% and a viability, T/C [36] of 102%. For the same molecule, the viability, T/C [6] was 94.2%, the viability, T/C [7] was 87.5% and the viability, T/C [8] was 95.8%. It also gave a viability, T/C [9] of 106%, a viability, T/C [10] of 84.8% and a viability, T/C [37] of 85.3%. For the same molecule, the viability, T/C [12] was 106%, the viability, T/C [13] was 90% and the viability, T/C [14] was 72.3%. It also gave a viability, T/C [15] of 104%, a viability, T/C [16] of 90% and a viability, T/C [38] of 89.3%. It also gave a viability, T/C [18] of 78.3%, a viability, T/C [19] of 80.6% and a viability, T/C [20] of 82.5%. The viability, T/C [21] was 84.6%, the viability, T/C [22] was 81.9% and the viability, T/C [39] was 19.2%. For the same molecule, the viability, T/C [24] was 19.5%, the viability, T/C [25] was 16% and the viability, T/C [26] was 11.1%. For the same molecule, the viability, T/C [27] was 4.58% and the viability, T/C [28] was 0.34%.
In the case of `C=CC(=O)N1CCN(c2nc(=O)n(-c3c(C)ccnc3C(C)C)c3nc(-c4c(O)cccc4F)c(F)cc23)C(C)C1` (stereo not given), the viability, T/C (compound 0.1 µM) is reported as 105% [middle of 17 runs], the viability, T/C (compound 10 µM) is reported as 66.7% [middle of 17 runs] and the IC50 (compound alone, run of 08/19/2021) is reported as over 10000 nM. It also gave an IC50 (compound alone, run of 08/26/2021) of over 10000 nM and an IC50 (compound alone, run of 09/02/2021) of over 10000 nM.
In the case of `Cn1nccc1Nc1nccc(-c2cc3c(s2)C(C)(C)N(CCN2CCOCC2)C3=O)n1` + CNCc1ccccc1-c1csc(C(C)Nc2nc(C)nc3cc(OC)c(OC)cc23)c1, the IC50 [1] is reported as 1050 nM, the IC50 [2] is reported as 784 nM and the IC50 [3] is reported as 913 nM. For the same molecule, the IC50 [4] was under 31.6 nM, the IC50 [5] was under 31.6 nM and the viability, T/C [7] was 99.7%. For the same molecule, the viability, T/C [8] was 84.2%, the viability, T/C [9] was 60.7% and the viability, T/C [10] was 54.2%. The viability, T/C [11] was 36.5%, the viability, T/C [40] was 18% and the viability, T/C [13] was 98.3%. For the same molecule, the viability, T/C [14] was 81.4%, the viability, T/C [15] was 60.9% and the viability, T/C [16] was 49.6%. The viability, T/C [17] was 29.4%, the viability, T/C [41] was 18.3% and the viability, T/C [19] was 103%. The viability, T/C [20] was 100%, the viability, T/C [21] was 71.9% and the viability, T/C [22] was 47.7%. The viability, T/C [23] was 22.3%, the viability, T/C [42] was 0.54% and the viability, T/C [25] was 0.21%. It also gave a viability, T/C [26] of 0.22%, a viability, T/C [27] of 0.19% and a viability, T/C [28] of 0.51%. It also gave a viability, T/C [29] of 0.08%, a viability, T/C [43] of 0.36% and a viability, T/C [31] of 0.11%. For the same molecule, the viability, T/C [32] was 0.15%, the viability, T/C [33] was 0.14% and the viability, T/C [34] was 0.14%. It also gave a viability, T/C [35] of 0.19% and a viability, T/C [44] of 0.2%.
`CCNC(=O)CC1N=C(c2ccc(Cl)cc2)c2cc(OC)ccc2-n2c(C)nnc21` (stereo not given) + CNCc1ccccc1-c1csc(C(C)Nc2nc(C)nc3cc(OC)c(OC)cc23)c1 showed an IC50 [1] of 509 nM, an IC50 [2] of 388 nM and an IC50 [3] of 360 nM. It also gave an IC50 [4] of under 31.6 nM, an IC50 [5] of under 31.6 nM and a viability, T/C [7] of 108%. The viability, T/C [8] was 87.9%, the viability, T/C [9] was 56.1% and the viability, T/C [10] was 41.4%. The viability, T/C [11] was 32%, the viability, T/C [40] was 31.4% and the viability, T/C [13] was 105%. For the same molecule, the viability, T/C [14] was 93%, the viability, T/C [15] was 53.3% and the viability, T/C [16] was 34.3%. For the same molecule, the viability, T/C [17] was 28.6%, the viability, T/C [41] was 30.6% and the viability, T/C [19] was 99%. The viability, T/C [20] was 92.2%, the viability, T/C [21] was 51.8% and the viability, T/C [22] was 34.9%. For the same molecule, the viability, T/C [23] was 32.5%, the viability, T/C [42] was 31.3% and the viability, T/C [25] was 0.37%. The viability, T/C [26] was 0.16%, the viability, T/C [27] was 0.27% and the viability, T/C [28] was 0.08%. The viability, T/C [29] was 0.08%, the viability, T/C [43] was 0.19% and the viability, T/C [31] was 0.15%. It also gave a viability, T/C [32] of 0.14%, a viability, T/C [33] of 0.12% and a viability, T/C [34] of 0.8%. The viability, T/C [35] was 0.13% and the viability, T/C [44] was 0.36%.
